Data: patent US6706716B2, “Compounds specific for the human α1d adrenergic receptor and uses thereof” (Synaptic Pharmaceutical Corporation, priority 1998, dated 2004)
“Also recorded” adds a separate entry of the source.

Assays:
[1] = system: urethane-anesthetized rats; test: Blood pressure in urethane-anesthetized, normotensive rats; assay type: in vivo, rat
Protocol: Rats were anesthetized with urethane and PE50 cannulae were placed in the femoral artery and vein for blood pressure monitoring and drug administration, respectively. After stabilization, rats were administered 200 μl saline vehicle or increasing doses of BMY 7378 or Compound 7 at 10 minutes intervals until the reduction in blood pressure reached a plateau. The 5-HT1A-selective antagonist WAY 100635 (1 mg/kg) was then administered and blood pressure monitored for an additional 10 minutes.

α1A adrenoceptor = target: T1, α1A adrenoceptor (Rattus norvegicus, UniProt P43140); test: Isolated tissue functional assay, epididymal vas deferens (phenylephrine induced contraction)
T1 construct: from tissue; host or cells: rat epididymal vas deferens
T1 sequence (P43140 1-466): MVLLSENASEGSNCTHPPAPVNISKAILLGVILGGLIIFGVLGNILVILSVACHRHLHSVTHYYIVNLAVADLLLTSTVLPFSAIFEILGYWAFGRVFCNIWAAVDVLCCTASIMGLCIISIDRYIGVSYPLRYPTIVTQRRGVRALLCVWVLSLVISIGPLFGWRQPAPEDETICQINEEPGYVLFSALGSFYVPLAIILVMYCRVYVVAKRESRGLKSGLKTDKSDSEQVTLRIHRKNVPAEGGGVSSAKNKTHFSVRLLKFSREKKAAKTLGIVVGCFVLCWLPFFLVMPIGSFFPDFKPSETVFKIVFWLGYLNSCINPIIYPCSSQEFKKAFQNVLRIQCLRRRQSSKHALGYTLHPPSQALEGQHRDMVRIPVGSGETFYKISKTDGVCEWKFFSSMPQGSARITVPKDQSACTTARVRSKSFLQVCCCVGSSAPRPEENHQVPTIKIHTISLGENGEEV
Protocol: (§1) The functional in vitro activity of Compound 7 was characterized in several pharmacologically defined α1 adrenoceptor subtype isolated tissue assays (Aboud et al., 1993). (Rat epididymal vas deferens was used to determine α1A functional responses, spleen was used for α1B responses, and thoracic aorta was used for α1D responses.) Experiments were carried out according to the method of Deng et al., 1996, with minor buffer and tissue setup tension modifications. Krebs additionally contained 0.1 μM desipramine and 10 μM corticosterone to block neuronal and extra neuronal uptake, respectively, and 0.3 μM idazoxan to eliminate α2 mediated responses. Aorta and vas deferens strips were set at 0.5 g resting tension, and the splenic preparations were tensioned to 1 g. All preparations were equilibrated for 1 hr before the addition of drugs.
(§2) Additionally, its antagonist potency was determined by its ability to antagonize phenylephrine (PE) induced contraction in each of these preparations. The degree of shift of the PE agonist dose response-curve in the presence of Compound 7 was measured and pKB values were calculated (mean±s.e.m.).

[2] = target: T2, human 5-HT1Dα (5-HT1D) receptor (Homo sapiens, UniProt P28221); test: Competition binding ([3H]serotonin) at cloned human 5-HT1Dα (5-HT1D) receptor; settings: read-out: binding affinity (pKi) 5-HT1Dα (5-HT1D) (converted)
T2 construct: expressed in transfected cells; host or cells: LM(tk-) clonal cell line Ltk-8-30-84 (ATCC CRL 10421)
Protocol: (§3) 5-HT1Dα (5-HT1D) and 5-HT1Dβ (5-HT1B) receptors: The cell lysates of the LM(tk-) clonal cell line stably transfected with the genes encoding each of these 5-HT receptor subtypes were prepared as described above. The cell line for the 5-HT1Dα (5-HT1D) receptor, designated as Ltk-8-30-84, was deposited on Apr. 17, 1990, and accorded ATCC Accession No. CRL 10421. The cell line for the 5-HT1Dβ (5-HT1B) receptor, designated as Ltk-11, was deposited on Apr. 17, 1990, and accorded ATCC Accession No. CRL 10422. These preparations were suspended in 50 mM Tris-HCl buffer (pH 7.4 at 37° C.) containing 10 mM MgCl2, 0.2 mM EDTA, 10 μM pargyline, and 0.1% ascorbate. […] Nonspecific binding was determined in the presence of 10 μM serotonin. The bound radioligand was separated by filtration through GF/B filters using a cell harvester.

[3] = target: T3, human 5-HT1Dβ (5-HT1B) receptor (Homo sapiens, UniProt P28222); test: Competition binding ([3H]serotonin) at cloned human 5-HT1Dβ (5-HT1B) receptor; settings: read-out: binding affinity (pKi) 5-HT1Dβ (5-HT1B) (converted)
T3 construct: expressed in transfected cells; host or cells: LM(tk-) clonal cell line Ltk-11 (ATCC CRL 10422)
Protocol: as §3

α1D adrenergic receptor = target: T4, α1D adrenergic receptor (Rattus norvegicus, UniProt P23944); test: Isolated tissue functional assay, thoracic aorta (phenylephrine induced contraction)
T4 construct: from tissue; host or cells: rat thoracic aorta strips
T4 sequence (P23944 1-561): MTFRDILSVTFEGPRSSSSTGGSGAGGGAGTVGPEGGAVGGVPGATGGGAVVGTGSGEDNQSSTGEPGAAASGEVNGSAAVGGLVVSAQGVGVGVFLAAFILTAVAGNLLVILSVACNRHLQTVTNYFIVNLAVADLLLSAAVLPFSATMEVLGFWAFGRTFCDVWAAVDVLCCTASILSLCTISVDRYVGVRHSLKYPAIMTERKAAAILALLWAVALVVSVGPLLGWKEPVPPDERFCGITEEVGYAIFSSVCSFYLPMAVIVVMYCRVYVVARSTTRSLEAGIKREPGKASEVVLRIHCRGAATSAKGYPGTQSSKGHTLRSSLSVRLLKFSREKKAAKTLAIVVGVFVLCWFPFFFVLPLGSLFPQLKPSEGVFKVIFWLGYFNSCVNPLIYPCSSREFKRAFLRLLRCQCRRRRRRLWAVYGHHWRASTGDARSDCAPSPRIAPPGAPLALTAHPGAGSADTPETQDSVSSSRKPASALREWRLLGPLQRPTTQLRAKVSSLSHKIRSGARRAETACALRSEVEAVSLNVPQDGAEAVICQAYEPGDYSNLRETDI
Protocol: as §1, §2

T3 sequence (P28222 whole entry): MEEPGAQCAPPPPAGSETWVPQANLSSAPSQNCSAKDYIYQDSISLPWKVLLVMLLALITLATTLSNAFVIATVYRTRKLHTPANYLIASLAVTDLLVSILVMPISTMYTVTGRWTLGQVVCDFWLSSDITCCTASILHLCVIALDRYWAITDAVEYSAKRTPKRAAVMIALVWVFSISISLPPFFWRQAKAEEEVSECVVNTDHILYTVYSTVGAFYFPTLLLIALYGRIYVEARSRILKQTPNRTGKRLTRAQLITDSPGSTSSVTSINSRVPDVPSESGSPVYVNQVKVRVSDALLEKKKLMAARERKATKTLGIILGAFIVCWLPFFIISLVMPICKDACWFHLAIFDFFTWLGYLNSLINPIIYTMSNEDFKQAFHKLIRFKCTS
T2 sequence (P28221 whole entry): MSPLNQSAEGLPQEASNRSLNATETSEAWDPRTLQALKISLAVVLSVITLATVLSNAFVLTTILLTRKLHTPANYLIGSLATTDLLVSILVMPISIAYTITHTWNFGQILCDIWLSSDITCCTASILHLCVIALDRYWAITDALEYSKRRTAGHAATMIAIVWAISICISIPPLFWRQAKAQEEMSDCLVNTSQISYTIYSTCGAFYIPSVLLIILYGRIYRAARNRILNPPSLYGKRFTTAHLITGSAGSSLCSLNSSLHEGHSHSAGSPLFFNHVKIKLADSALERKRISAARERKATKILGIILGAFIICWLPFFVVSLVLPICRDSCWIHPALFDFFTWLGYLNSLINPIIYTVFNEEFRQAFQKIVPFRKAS

Compound: O=C1CC2(CCCC2)CC(=O)N1CCN1CCN(c2cc(F)c(F)cc2F)CC1 [Compound 7, 8-{2-[4-(2,4,5-Trifluorophenyl)piperazin-1-yl]ethyl}-8-azaspiro[4.5]decane-7,9-dione]
- reversal of the blood pressure effect by WAY 100635 ([1]; 5-HT1A-selective antagonist WAY 100635 1 mg/kg given after plateau): not reversed
- effect on systolic, diastolic and mean blood pressure ([1]; urethane-anesthetized rats, increasing i.v. doses at 10 min intervals): reduces blood pressure in anesthetized rat, although to a lesser extent than BMY 7378; also recorded: only a minor reduction in blood pressure
- agonist activity (α1A adrenoceptor; concentrations up to 10 μM, rat vas deferens (α1A model)): failed to produce agonist activity
- Kb (α1A adrenoceptor; rat epididymal vas deferens (α1A), mean±s.e.m., read-out: pKB (antagonism of phenylephrine induced contraction) (converted)): 6.31 µM
- fold less potent than in the aorta (α1A adrenoceptor; vas deferens versus aorta): approximately 2000 fold
- Ki [2]: 0.794 µM
- Ki [3]: 5.01 µM
- agonist activity (α1D adrenergic receptor; concentrations up to 10 μM, rat thoracic aorta (α1D model)): failed to produce agonist activity
- Kb (α1D adrenergic receptor; rat thoracic aorta (α1D), mean±s.e.m., read-out: pKB (antagonism of phenylephrine induced contraction) (converted)): 0.00316 µM
